# Assay results from PubChem BioAssay (NCI).
#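 Each compound was tested at five concentrations against cells in 96-well plates for 48 hours. TGI is the concentration that stops growth completely.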
# How the values were obtained:
# Assay in all cases: inhibition of tumour cell growth, NCI panel, 48 h
# EKVX NSCLC = test system: EKVX NSCLC
# T-47D breast = test system: T-47D breast
# UO-31 renal = test system: UO-31 renal
# OVCAR-5 ovarian = test system: OVCAR-5 ovarian
# SF-295 CNS = test system: SF-295 CNS
# SNB-19 CNS = test system: SNB-19 CNS
# SK-MEL-2 melanoma = test system: SK-MEL-2 melanoma
# SF-268 CNS = test system: SF-268 CNS
# SK-MEL-5 melanoma = test system: SK-MEL-5 melanoma
# COLO 205 colon = test system: COLO 205 colon
# NCI/ADR-RES ovarian = test system: NCI/ADR-RES ovarian
# NCI-H460 lung = test system: NCI-H460 lung
# SN12C renal = test system: SN12C renal
# K-562 leukemia = test system: K-562 leukemia
# 786-0 renal = test system: 786-0 renal
# NCI-H522 lung = test system: NCI-H522 lung
# MCF7 breast = test system: MCF7 breast
# HCT-15 colon = test system: HCT-15 colon
# UACC-62 melanoma = test system: UACC-62 melanoma
# SW-620 colon = test system: SW-620 colon
# HCT-116 colon = test system: HCT-116 colon
# LOX IMVI melanoma = test system: LOX IMVI melanoma
# IGROV1 ovarian = test system: IGROV1 ovarian
# CAKI-1 renal = test system: CAKI-1 renal
# U251 CNS = test system: U251 CNS
# A549 NSCLC = test system: A549 NSCLC
# ACHN renal = test system: ACHN renal
# NCI-H226 lung = test system: NCI-H226 lung
# MDA-MB-435 = test system: MDA-MB-435
# SR leukemia = test system: SR leukemia
# RXF 393 renal = test system: RXF 393 renal
# MDA-MB-231 breast = test system: MDA-MB-231 breast
# KM12 colon = test system: KM12 colon
# M14 melanoma = test system: M14 melanoma
# MDA-N = test system: MDA-N
# HOP-62 NSCLC = test system: HOP-62 NSCLC
# TK-10 renal = test system: TK-10 renal
# SK-OV-3 ovarian = test system: SK-OV-3 ovarian
# SNB-75 CNS = test system: SNB-75 CNS
# OVCAR-3 ovarian = test system: OVCAR-3 ovarian
# SK-MEL-28 melanoma = test system: SK-MEL-28 melanoma
# CCRF-CEM leukemia = test system: CCRF-CEM leukemia
# DU-145 prostate = test system: DU-145 prostate
# BT-549 breast = test system: BT-549 breast
# HT29 colon = test system: HT29 colon
# PC-3 prostate = test system: PC-3 prostate
# UACC-257 melanoma = test system: UACC-257 melanoma
# OVCAR-4 ovarian = test system: OVCAR-4 ovarian
# SF-539 CNS = test system: SF-539 CNS
# NCI-H23 lung = test system: NCI-H23 lung
# HOP-92 NSCLC = test system: HOP-92 NSCLC
# OVCAR-8 ovarian = test system: OVCAR-8 ovarian
# HCC-2998 colon = test system: HCC-2998 colon
# MOLT-4 leukemia = test system: MOLT-4 leukemia
# HS 578T breast = test system: HS 578T breast
# HL-60(TB) leukemia = test system: HL-60(TB) leukemia
smiles,measurement,setting,value
CC(C)(C)OC(=O)[C@@H]1ON2O[C@H](OC3CCCC3(c3ccccc3)c3ccccc3)C[C@H]3OC(=O)[C@@H]1[C@H]32 (stereo partly drawn),TGI,EKVX NSCLC,> 100 µM
same,TGI,T-47D breast,> 100 µM
same,TGI,UO-31 renal,> 100 µM
same,TGI,OVCAR-5 ovarian,> 100 µM
same,TGI,SF-295 CNS,> 100 µM
same,TGI,SNB-19 CNS,> 100 µM
same,TGI,SK-MEL-2 melanoma,51.8 µM
same,TGI,SF-268 CNS,> 100 µM
same,TGI,SK-MEL-5 melanoma,> 100 µM
same,TGI,COLO 205 colon,> 100 µM
same,TGI,NCI/ADR-RES ovarian,> 100 µM
same,TGI,NCI-H460 lung,> 100 µM
same,TGI,SN12C renal,> 100 µM
same,TGI,K-562 leukemia,> 100 µM
same,TGI,786-0 renal,> 100 µM
same,TGI,NCI-H522 lung,> 100 µM
same,TGI,MCF7 breast,> 100 µM
same,TGI,HCT-15 colon,> 100 µM
same,TGI,UACC-62 melanoma,> 100 µM
same,TGI,SW-620 colon,> 100 µM
same,TGI,HCT-116 colon,> 100 µM
same,TGI,LOX IMVI melanoma,96.6 µM
same,TGI,IGROV1 ovarian,> 100 µM
same,TGI,CAKI-1 renal,> 100 µM
same,TGI,U251 CNS,> 100 µM
same,TGI,A549 NSCLC,> 100 µM
same,TGI,ACHN renal,> 100 µM
same,TGI,NCI-H226 lung,> 100 µM
same,TGI,MDA-MB-435,> 100 µM
same,TGI,SR leukemia,> 100 µM
same,TGI,RXF 393 renal,92.1 µM
same,TGI,MDA-MB-231 breast,> 100 µM
same,TGI,KM12 colon,> 100 µM
same,TGI,M14 melanoma,> 100 µM
same,TGI,MDA-N,> 100 µM
same,TGI,HOP-62 NSCLC,> 100 µM
same,TGI,TK-10 renal,> 100 µM
same,TGI,SK-OV-3 ovarian,> 100 µM
same,TGI,SNB-75 CNS,> 100 µM
same,TGI,OVCAR-3 ovarian,54.1 µM
same,TGI,SK-MEL-28 melanoma,> 100 µM
same,TGI,CCRF-CEM leukemia,> 100 µM
same,TGI,DU-145 prostate,> 100 µM
same,TGI,BT-549 breast,> 100 µM
same,TGI,HT29 colon,> 100 µM
same,TGI,PC-3 prostate,> 100 µM
same,TGI,UACC-257 melanoma,> 100 µM
same,TGI,OVCAR-4 ovarian,54.3 µM
same,TGI,SF-539 CNS,> 100 µM
same,TGI,NCI-H23 lung,> 100 µM
CC(=O)C1C(=O)C(=O)N(c2ccc([N+](=O)[O-])cc2)C1=O (stereo not drawn),TGI,EKVX NSCLC,> 100 µM
same,TGI,UO-31 renal,> 100 µM
same,TGI,OVCAR-5 ovarian,> 100 µM
same,TGI,SF-295 CNS,> 100 µM
same,TGI,SNB-19 CNS,> 100 µM
same,TGI,SK-MEL-2 melanoma,> 100 µM
same,TGI,SF-268 CNS,> 100 µM
same,TGI,SK-MEL-5 melanoma,> 100 µM
same,TGI,COLO 205 colon,> 100 µM
same,TGI,NCI/ADR-RES ovarian,> 100 µM
same,TGI,NCI-H460 lung,> 100 µM
same,TGI,SN12C renal,> 100 µM
same,TGI,786-0 renal,> 100 µM
same,TGI,NCI-H522 lung,> 100 µM
same,TGI,HOP-92 NSCLC,> 100 µM
same,TGI,MCF7 breast,> 100 µM
same,TGI,HCT-15 colon,> 100 µM
same,TGI,UACC-62 melanoma,> 100 µM
same,TGI,OVCAR-8 ovarian,> 100 µM
same,TGI,SW-620 colon,> 100 µM
same,TGI,HCT-116 colon,> 100 µM
same,TGI,LOX IMVI melanoma,> 100 µM
same,TGI,IGROV1 ovarian,> 100 µM
same,TGI,CAKI-1 renal,> 100 µM
same,TGI,HCC-2998 colon,> 100 µM
same,TGI,U251 CNS,> 100 µM
same,TGI,A549 NSCLC,> 100 µM
same,TGI,ACHN renal,> 100 µM
same,TGI,NCI-H226 lung,> 100 µM
same,TGI,MDA-MB-435,> 100 µM
same,TGI,MOLT-4 leukemia,> 100 µM
same,TGI,RXF 393 renal,> 100 µM
same,TGI,MDA-MB-231 breast,> 100 µM
same,TGI,KM12 colon,> 100 µM
same,TGI,M14 melanoma,> 100 µM
same,TGI,MDA-N,> 100 µM
same,TGI,HOP-62 NSCLC,> 100 µM
same,TGI,TK-10 renal,> 100 µM
same,TGI,HS 578T breast,> 100 µM
same,TGI,HL-60(TB) leukemia,> 100 µM
same,TGI,SK-OV-3 ovarian,> 100 µM
same,TGI,SNB-75 CNS,> 100 µM
same,TGI,OVCAR-3 ovarian,> 100 µM
same,TGI,SK-MEL-28 melanoma,> 100 µM
same,TGI,CCRF-CEM leukemia,> 100 µM
same,TGI,DU-145 prostate,> 100 µM
same,TGI,BT-549 breast,> 100 µM
same,TGI,HT29 colon,> 100 µM
same,TGI,PC-3 prostate,> 100 µM
same,TGI,UACC-257 melanoma,> 100 µM
same,TGI,OVCAR-4 ovarian,> 100 µM
same,TGI,SF-539 CNS,> 100 µM
same,TGI,NCI-H23 lung,> 100 µM
